Patent publication US6355799B1, “Substituted benzene compounds, process for their preparation, and herbicidal and defoliant compositions containing them” (ISK Americas Incorporated, priority 1997, dated 2002)

Columns and labels:
Format in all cases: in vivo
[1] = system: redroot pigweed (Amaranthus retroflexus, AMARE); experiment: Pre-emerge test, greenhouse herbicide activity screening; conditions: pre-emerge, phytotoxicity rating 0-100 at 14 days after application
Procedure, shortened: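 Sandy loam pots; pre-emerge: sown 1 d pre-spray, surface-watered after, then bottom-watered. Post-emerge: sown 8–21 d before, 2–3 leaf stage, + 0.25% v/v NIS, bottom-watered. Acetone, 187 l/ha track spray, 15–1000 g ai/ha. 0–100 injury score, day 14.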

[2] = system: barnyardgrass (Echinochloa crus-galli, ECHCG); experiment: as above; conditions: pre-emerge, phytotoxicity rating 0-100 at 14 days after application
Procedure, shortened: (§1)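 Rating: 0–100 visual injury, 14 DAA. Application: acetone, 187 l/ha, 15–1000 g ai/ha, flat-fan track sprayer with nozzle 40–45 cm above soil or canopy. Post-emerge runs used 0.25% v/v surfactant on 2–3 leaf plants.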

[3] = system: green foxtail (Setaria viridis, SETVI); experiment: as above; conditions: pre-emerge, phytotoxicity rating 0-100 at 14 days after application
Procedure, shortened: as §1

[4] = system: ivyleaf morningglory (Ipomoea hederacea, IPOHE); experiment: as above; conditions: pre-emerge, phytotoxicity rating 0-100 at 14 days after application
Procedure, shortened: as §1

[5] = system: johnsongrass (Sorghum halepense, SORHA); experiment: as above; conditions: pre-emerge, phytotoxicity rating 0-100 at 14 days after application
Procedure, shortened: as §1

[6] = system: lambsquarters (Chenopodium album, CHEAL); experiment: as above; conditions: pre-emerge, phytotoxicity rating 0-100 at 14 days after application
Procedure, shortened: as §1

[7] = system: large crabgrass (Digitaria sanguinalis, DIGSA); experiment: as above; conditions: pre-emerge, phytotoxicity rating 0-100 at 14 days after application
Procedure, shortened: as §1

[8] = system: sicklepod (Cassia obtusifolia, CASOB); experiment: as above; conditions: pre-emerge, phytotoxicity rating 0-100 at 14 days after application
Procedure, shortened: as §1

[9] = system: velvetleaf (Abutilon theophrasti, ABUTH); experiment: as above; conditions: pre-emerge, phytotoxicity rating 0-100 at 14 days after application
Procedure, shortened: as §1

[10] = system: field corn (Zea mays L., var. Dekalb 535, CORN); experiment: Pre-emerge test, crop safety; conditions: crop damage, pre-emerge, phytotoxicity rating 0-100 at 14 days after application
Procedure, shortened: as §1

[11] = system: upland rice (Oryza sp., var. Tebonnet, RICE); experiment: Pre-emerge test, crop safety; conditions: crop damage, pre-emerge, phytotoxicity rating 0-100 at 14 days after application
Procedure, shortened: as §1

[12] = system: barnyardgrass (Echinochloa crus-galli, ECHCG); experiment: Post-emerge test, greenhouse herbicide activity screening; conditions: post-emerge, phytotoxicity rating 0-100 at 14 days after application
Procedure, shortened: (§2)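 Fourteen days after spraying, crop and weed injury was graded visually from 0, no effect, to 100, every plant dead. Test substances were dissolved in acetone and applied at 15–1000 g ai/ha with a flat-fan nozzle. Application was either pre-emergence, one day after sowing, or post-emergence at the 2–3 leaf stage.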

[13] = system: green foxtail (Setaria viridis, SETVI); experiment: as above; conditions: post-emerge, phytotoxicity rating 0-100 at 14 days after application
Procedure, shortened: as §2

[14] = system: ivyleaf morningglory (Ipomoea hederacea, IPOHE); experiment: as above; conditions: post-emerge, phytotoxicity rating 0-100 at 14 days after application
Procedure, shortened: as §2

[15] = system: johnsongrass (Sorghum halepense, SORHA); experiment: as above; conditions: post-emerge, phytotoxicity rating 0-100 at 14 days after application
Procedure, shortened: as §2

[16] = system: lambsquarters (Chenopodium album, CHEAL); experiment: as above; conditions: post-emerge, phytotoxicity rating 0-100 at 14 days after application
Procedure, shortened: as §2

[17] = system: large crabgrass (Digitaria sanguinalis, DIGSA); experiment: as above; conditions: post-emerge, phytotoxicity rating 0-100 at 14 days after application
Procedure, shortened: as §2

[18] = system: redroot pigweed (Amaranthus retroflexus, AMARE); experiment: as above; conditions: post-emerge, phytotoxicity rating 0-100 at 14 days after application
Procedure, shortened: as §2

[19] = system: sicklepod (Cassia obtusifolia, CASOB); experiment: as above; conditions: post-emerge, phytotoxicity rating 0-100 at 14 days after application
Procedure, shortened: as §2

[20] = system: velvetleaf (Abutilon theophrasti, ABUTH); experiment: as above; conditions: post-emerge, phytotoxicity rating 0-100 at 14 days after application
Procedure, shortened: as §2

[21] = system: field corn (Zea mays L., var. Dekalb 535, CORN); experiment: Post-emerge test, crop safety; conditions: post-emerge, crop damage rating 0-100 at 14 days after application
Procedure, shortened: (§3)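 Plants grown in 10 cm pots of sandy loam mix received acetone-dissolved compounds through a moving flat-fan nozzle. Doses ranged from 15 to 1000 g ai/ha. Pre-emerge pots were seeded one day earlier, post-emerge pots 8–21 days earlier. Fourteen days on, each pot was graded 0–100 for damage.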

[22] = system: upland rice (Oryza sp., var. Tebonnet, RICE); experiment: Post-emerge test, crop safety; conditions: post-emerge, crop damage rating 0-100 at 14 days after application
Procedure, shortened: as §3

COc1c(Cl)cc(F)c(-n2c(=O)n3n(c2=O)CCCC3)c1NC(=O)c1ccc(F)cc1F [9-16]
Pre-emerge Herbicidal Activity AMARE ([1]; rate 63 g ai/ha): 70
Pre-emerge Herbicidal Activity AMARE ([1]; rate 250 g ai/ha): 100
Pre-emerge Herbicidal Activity ECHCG ([2]; rate 63 g ai/ha): 0
Pre-emerge Herbicidal Activity ECHCG ([2]; rate 250 g ai/ha): 40
Pre-emerge Herbicidal Activity SETVI ([3]; rate 63 g ai/ha): 39
Pre-emerge Herbicidal Activity SETVI ([3]; rate 250 g ai/ha): 70
Pre-emerge Herbicidal Activity IPOHE ([4]; rate 63 g ai/ha): 70
Pre-emerge Herbicidal Activity IPOHE ([4]; rate 250 g ai/ha): 70
Pre-emerge Herbicidal Activity SORHA ([5]; rate 63 g ai/ha): 10
Pre-emerge Herbicidal Activity SORHA ([5]; rate 250 g ai/ha): 40
Pre-emerge Herbicidal Activity CHEAL ([6]; rate 63 g ai/ha): 100
Pre-emerge Herbicidal Activity CHEAL ([6]; rate 250 g ai/ha): 100
Pre-emerge Herbicidal Activity DIGSA ([7]; rate 63 g ai/ha): 10
Pre-emerge Herbicidal Activity DIGSA ([7]; rate 250 g ai/ha): 40
Pre-emerge Herbicidal Activity CASOB ([8]; rate 63 g ai/ha): 20
Pre-emerge Herbicidal Activity CASOB ([8]; rate 250 g ai/ha): 60
Pre-emerge Herbicidal Activity ABUTH ([9]; rate 63 g ai/ha): 100
Pre-emerge Herbicidal Activity ABUTH ([9]; rate 250 g ai/ha): 100
Pre-emerge Herbicidal Activity CORN ([10]; rate 63 g ai/ha): 0
Pre-emerge Herbicidal Activity CORN ([10]; rate 250 g ai/ha): 90
Pre-emerge Herbicidal Activity RICE ([11]; rate 63 g ai/ha): 80
Pre-emerge Herbicidal Activity RICE ([11]; rate 250 g ai/ha): 90
Post-emerge Herbicidal Activity ECHCG ([12]; 63 g ai/ha): 0
Post-emerge Herbicidal Activity ECHCG ([12]; 250 g ai/ha): 10
Post-emerge Herbicidal Activity SETVI ([13]; 63 g ai/ha): 0
Post-emerge Herbicidal Activity SETVI ([13]; 250 g ai/ha): 20
Post-emerge Herbicidal Activity IPOHE ([14]; 63 g ai/ha): 90
Post-emerge Herbicidal Activity IPOHE ([14]; 250 g ai/ha): 100
Post-emerge Herbicidal Activity SORHA ([15]; 63 g ai/ha): 0
Post-emerge Herbicidal Activity SORHA ([15]; 250 g ai/ha): 0
Post-emerge Herbicidal Activity CHEAL ([16]; 63 g ai/ha): 65
Post-emerge Herbicidal Activity CHEAL ([16]; 250 g ai/ha): 80
Post-emerge Herbicidal Activity DIGSA ([17]; 63 g ai/ha): 10
Post-emerge Herbicidal Activity DIGSA ([17]; 250 g ai/ha): 0
Post-emerge Herbicidal Activity AMARE ([18]; 63 g ai/ha): 30
Post-emerge Herbicidal Activity AMARE ([18]; 250 g ai/ha): 75
Post-emerge Herbicidal Activity CASOB ([19]; 63 g ai/ha): 50
Post-emerge Herbicidal Activity CASOB ([19]; 250 g ai/ha): 85
Post-emerge Herbicidal Activity ABUTH ([20]; 63 g ai/ha): 100
Post-emerge Herbicidal Activity ABUTH ([20]; 250 g ai/ha): 100
Post-emerge Herbicidal Activity CORN ([21]; 63 g ai/ha): 5
Post-emerge Herbicidal Activity CORN ([21]; 250 g ai/ha): 65
Post-emerge Herbicidal Activity RICE ([22]; 63 g ai/ha): 30
Post-emerge Herbicidal Activity RICE ([22]; 250 g ai/ha): 70

COc1c(Cl)cc(F)c(N2C(=O)C3=C(CCCC3)C2=O)c1N [8-7]
Pre-emerge Herbicidal Activity AMARE ([1]; rate 63 g ai/ha): 99
Pre-emerge Herbicidal Activity AMARE ([1]; rate 250 g ai/ha): 100
Pre-emerge Herbicidal Activity ECHCG ([2]; rate 63 g ai/ha): 0
Pre-emerge Herbicidal Activity ECHCG ([2]; rate 250 g ai/ha): 70
Pre-emerge Herbicidal Activity SETVI ([3]; rate 63 g ai/ha): 95
Pre-emerge Herbicidal Activity SETVI ([3]; rate 250 g ai/ha): 99
Pre-emerge Herbicidal Activity IPOHE ([4]; rate 63 g ai/ha): 0
Pre-emerge Herbicidal Activity IPOHE ([4]; rate 250 g ai/ha): 0
Pre-emerge Herbicidal Activity SORHA ([5]; rate 63 g ai/ha): 10
Pre-emerge Herbicidal Activity SORHA ([5]; rate 250 g ai/ha): 70
Pre-emerge Herbicidal Activity CHEAL ([6]; rate 63 g ai/ha): 95
Pre-emerge Herbicidal Activity CHEAL ([6]; rate 250 g ai/ha): 100
Pre-emerge Herbicidal Activity DIGSA ([7]; rate 63 g ai/ha): 50
Pre-emerge Herbicidal Activity DIGSA ([7]; rate 250 g ai/ha): 80
Pre-emerge Herbicidal Activity CASOB ([8]; rate 63 g ai/ha): 0
Pre-emerge Herbicidal Activity CASOB ([8]; rate 250 g ai/ha): 0
Pre-emerge Herbicidal Activity ABUTH ([9]; rate 63 g ai/ha): 100
Pre-emerge Herbicidal Activity ABUTH ([9]; rate 250 g ai/ha): 100
Pre-emerge Herbicidal Activity CORN ([10]; rate 63 g ai/ha): 0
Pre-emerge Herbicidal Activity CORN ([10]; rate 250 g ai/ha): 10
Pre-emerge Herbicidal Activity RICE ([11]; rate 63 g ai/ha): 0
Pre-emerge Herbicidal Activity RICE ([11]; rate 250 g ai/ha): 0
Post-emerge Herbicidal Activity ECHCG ([12]; 63 g ai/ha): 0
Post-emerge Herbicidal Activity ECHCG ([12]; 250 g ai/ha): 20
Post-emerge Herbicidal Activity SETVI ([13]; 63 g ai/ha): 0
Post-emerge Herbicidal Activity SETVI ([13]; 250 g ai/ha): 90
Post-emerge Herbicidal Activity IPOHE ([14]; 63 g ai/ha): 10
Post-emerge Herbicidal Activity IPOHE ([14]; 250 g ai/ha): 70
Post-emerge Herbicidal Activity SORHA ([15]; 63 g ai/ha): 0
Post-emerge Herbicidal Activity SORHA ([15]; 250 g ai/ha): 0
Post-emerge Herbicidal Activity CHEAL ([16]; 63 g ai/ha): 95
Post-emerge Herbicidal Activity CHEAL ([16]; 250 g ai/ha): 99
Post-emerge Herbicidal Activity DIGSA ([17]; 63 g ai/ha): 0
Post-emerge Herbicidal Activity DIGSA ([17]; 250 g ai/ha): 10
Post-emerge Herbicidal Activity AMARE ([18]; 63 g ai/ha): 95
Post-emerge Herbicidal Activity AMARE ([18]; 250 g ai/ha): 100
Post-emerge Herbicidal Activity CASOB ([19]; 63 g ai/ha): 0
Post-emerge Herbicidal Activity CASOB ([19]; 250 g ai/ha): 90
Post-emerge Herbicidal Activity ABUTH ([20]; 63 g ai/ha): 95
Post-emerge Herbicidal Activity ABUTH ([20]; 250 g ai/ha): 100
Post-emerge Herbicidal Activity CORN ([21]; 63 g ai/ha): 10
Post-emerge Herbicidal Activity CORN ([21]; 250 g ai/ha): 10
Post-emerge Herbicidal Activity RICE ([22]; 63 g ai/ha): 0
Post-emerge Herbicidal Activity RICE ([22]; 250 g ai/ha): 90
